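Values below derive from 48-hour exposures of cells grown in 96-well plates, with endpoints linearly interpolated between the two concentrations bracketing the appropriate inhibition level. TGI: concentration producing complete growth inhibition.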
Legend:
Assay in all cases: NCI tumour cell line growth inhibition, 48 h
HCT-15 colon = test system: HCT-15 colon
OVCAR-4 ovarian = test system: OVCAR-4 ovarian
OVCAR-3 ovarian = test system: OVCAR-3 ovarian
NCI-H226 lung = test system: NCI-H226 lung
K-562 leukemia = test system: K-562 leukemia
HOP-62 NSCLC = test system: HOP-62 NSCLC
SF-295 CNS = test system: SF-295 CNS
UO-31 renal = test system: UO-31 renal
MALME-3M melanoma = test system: MALME-3M melanoma
PC-3 prostate = test system: PC-3 prostate
RXF 393 renal = test system: RXF 393 renal
OVCAR-5 ovarian = test system: OVCAR-5 ovarian
SR leukemia = test system: SR leukemia
HT29 colon = test system: HT29 colon
ACHN renal = test system: ACHN renal
M14 melanoma = test system: M14 melanoma
HCT-116 colon = test system: HCT-116 colon
SW-620 colon = test system: SW-620 colon
SNB-75 CNS = test system: SNB-75 CNS
UACC-62 melanoma = test system: UACC-62 melanoma
LOX IMVI melanoma = test system: LOX IMVI melanoma
SK-MEL-2 melanoma = test system: SK-MEL-2 melanoma
HOP-92 NSCLC = test system: HOP-92 NSCLC
SNB-19 CNS = test system: SNB-19 CNS
A498 renal = test system: A498 renal
MDA-MB-231 breast = test system: MDA-MB-231 breast
SN12C renal = test system: SN12C renal
SF-539 CNS = test system: SF-539 CNS
MDA-N = test system: MDA-N
IGROV1 ovarian = test system: IGROV1 ovarian
HCC-2998 colon = test system: HCC-2998 colon
U251 CNS = test system: U251 CNS
786-0 renal = test system: 786-0 renal
OVCAR-8 ovarian = test system: OVCAR-8 ovarian
EKVX NSCLC = test system: EKVX NSCLC
KM12 colon = test system: KM12 colon
MDA-MB-435 = test system: MDA-MB-435
RPMI-8226 leukemia = test system: RPMI-8226 leukemia
SK-MEL-28 melanoma = test system: SK-MEL-28 melanoma
UACC-257 melanoma = test system: UACC-257 melanoma
SK-OV-3 ovarian = test system: SK-OV-3 ovarian
DU-145 prostate = test system: DU-145 prostate
TK-10 renal = test system: TK-10 renal
CAKI-1 renal = test system: CAKI-1 renal
BT-549 breast = test system: BT-549 breast
SF-268 CNS = test system: SF-268 CNS
COLO 205 colon = test system: COLO 205 colon
NCI-H522 lung = test system: NCI-H522 lung
HS 578T breast = test system: HS 578T breast
NCI-H460 lung = test system: NCI-H460 lung
CCRF-CEM leukemia = test system: CCRF-CEM leukemia
MCF7 breast = test system: MCF7 breast
T-47D breast = test system: T-47D breast
A549 NSCLC = test system: A549 NSCLC
NCI-H23 lung = test system: NCI-H23 lung
NCI/ADR-RES ovarian = test system: NCI/ADR-RES ovarian
HL-60(TB) leukemia = test system: HL-60(TB) leukemia
SK-MEL-5 melanoma = test system: SK-MEL-5 melanoma

Compound `C=C1CC23CCC4C(C)(C(=O)O)CCCC4(C)C2CCC1C3` (stereo not drawn) has a TGI (HCT-15 colon) greater than 100 µM, a TGI (OVCAR-4 ovarian) greater than 100 µM and a TGI (OVCAR-3 ovarian) greater than 100 µM. For the same compound, the TGI (NCI-H226 lung) was greater than 100 µM, the TGI (K-562 leukemia) was greater than 100 µM and the TGI (HOP-62 NSCLC) was greater than 100 µM. For the same compound, the TGI (SF-295 CNS) was greater than 100 µM, the TGI (UO-31 renal) was 88.2 µM and the TGI (MALME-3M melanoma) was greater than 100 µM. The TGI (PC-3 prostate) was greater than 100 µM, the TGI (RXF 393 renal) was greater than 100 µM and the TGI (OVCAR-5 ovarian) was greater than 100 µM. For the same compound, the TGI (SR leukemia) was 90.9 µM, the TGI (HT29 colon) was greater than 100 µM and the TGI (ACHN renal) was greater than 100 µM. It also gave a TGI (M14 melanoma) greater than 100 µM, a TGI (HCT-116 colon) greater than 100 µM and a TGI (SW-620 colon) greater than 100 µM. It also gave a TGI (SNB-75 CNS) greater than 100 µM, a TGI (UACC-62 melanoma) greater than 100 µM and a TGI (LOX IMVI melanoma) greater than 100 µM. The TGI (SK-MEL-2 melanoma) was greater than 100 µM, the TGI (HOP-92 NSCLC) was 94.3 µM and the TGI (SNB-19 CNS) was greater than 100 µM. For the same compound, the TGI (A498 renal) was greater than 100 µM, the TGI (MDA-MB-231 breast) was greater than 100 µM and the TGI (SN12C renal) was greater than 100 µM. It also gave a TGI (SF-539 CNS) greater than 100 µM, a TGI (MDA-N) greater than 100 µM and a TGI (IGROV1 ovarian) of 94.9 µM. The TGI (HCC-2998 colon) was 78.6 µM, the TGI (U251 CNS) was greater than 100 µM and the TGI (786-0 renal) was greater than 100 µM. The TGI (OVCAR-8 ovarian) was greater than 100 µM, the TGI (EKVX NSCLC) was 75.5 µM and the TGI (KM12 colon) was greater than 100 µM. It also gave a TGI (MDA-MB-435) greater than 100 µM, a TGI (RPMI-8226 leukemia) of 91.6 µM and a TGI (SK-MEL-28 melanoma) greater than 100 µM. It also gave a TGI (UACC-257 melanoma) greater than 100 µM, a TGI (SK-OV-3 ovarian) greater than 100 µM and a TGI (DU-145 prostate) greater than 100 µM. It also gave a TGI (TK-10 renal) greater than 100 µM, a TGI (CAKI-1 renal) greater than 100 µM and a TGI (BT-549 breast) greater than 100 µM. For the same compound, the TGI (SF-268 CNS) was greater than 100 µM, the TGI (COLO 205 colon) was 39.5 µM and the TGI (NCI-H522 lung) was 89.7 µM. The TGI (HS 578T breast) was greater than 100 µM, the TGI (NCI-H460 lung) was 59.1 µM and the TGI (CCRF-CEM leukemia) was greater than 100 µM. It also gave a TGI (MCF7 breast) greater than 100 µM, a TGI (T-47D breast) greater than 100 µM and a TGI (A549 NSCLC) greater than 100 µM. It also gave a TGI (NCI-H23 lung) greater than 100 µM.

`COc1cc(OC)cc(-n2c(N)c(-c3nc4ccccc4s3)c3ccc([N+](=O)[O-])cc3c2=O)c1` gave a TGI (HCT-15 colon) greater than 100 µM, a TGI (OVCAR-4 ovarian) of 78.9 µM and a TGI (NCI-H226 lung) greater than 100 µM. For the same compound, the TGI (K-562 leukemia) was greater than 100 µM, the TGI (SF-295 CNS) was greater than 100 µM and the TGI (UO-31 renal) was greater than 100 µM. It also gave a TGI (MALME-3M melanoma) greater than 100 µM, a TGI (NCI/ADR-RES ovarian) greater than 100 µM and a TGI (SR leukemia) of 89.7 µM. It also gave a TGI (HT29 colon) greater than 100 µM, a TGI (ACHN renal) of 41.7 µM and a TGI (HL-60(TB) leukemia) of 13 µM. For the same compound, the TGI (HCT-116 colon) was greater than 100 µM, the TGI (SW-620 colon) was greater than 100 µM and the TGI (SNB-75 CNS) was greater than 100 µM. For the same compound, the TGI (UACC-62 melanoma) was greater than 100 µM, the TGI (LOX IMVI melanoma) was greater than 100 µM and the TGI (HOP-92 NSCLC) was 15.8 µM. For the same compound, the TGI (SNB-19 CNS) was greater than 100 µM, the TGI (A498 renal) was 76.7 µM and the TGI (MDA-MB-231 breast) was greater than 100 µM. It also gave a TGI (SN12C renal) of 82.8 µM, a TGI (SF-539 CNS) of 37.5 µM and a TGI (MDA-N) greater than 100 µM. It also gave a TGI (HCC-2998 colon) greater than 100 µM, a TGI (U251 CNS) greater than 100 µM and a TGI (786-0 renal) greater than 100 µM. For the same compound, the TGI (OVCAR-8 ovarian) was greater than 100 µM, the TGI (KM12 colon) was greater than 100 µM and the TGI (MDA-MB-435) was greater than 100 µM. It also gave a TGI (RPMI-8226 leukemia) greater than 100 µM, a TGI (SK-MEL-28 melanoma) greater than 100 µM and a TGI (UACC-257 melanoma) greater than 100 µM. It also gave a TGI (SK-OV-3 ovarian) greater than 100 µM, a TGI (DU-145 prostate) greater than 100 µM and a TGI (TK-10 renal) of 38.8 µM. It also gave a TGI (CAKI-1 renal) greater than 100 µM, a TGI (BT-549 breast) greater than 100 µM and a TGI (SF-268 CNS) greater than 100 µM. It also gave a TGI (COLO 205 colon) greater than 100 µM, a TGI (NCI-H522 lung) greater than 100 µM and a TGI (HS 578T breast) greater than 100 µM. The TGI (NCI-H460 lung) was greater than 100 µM, the TGI (SK-MEL-5 melanoma) was greater than 100 µM and the TGI (CCRF-CEM leukemia) was greater than 100 µM. The TGI (MCF7 breast) was greater than 100 µM, the TGI (T-47D breast) was greater than 100 µM and the TGI (NCI-H23 lung) was greater than 100 µM.
